Data as given in PMC11167047 (Cell Death Discovery, 2024).

How the values were obtained:
Assay in all cases: kinome screen (33PanQinase)
Format in all cases: biochemical
[1] = target: T1, CDK6/CycD2 (Homo sapiens, UniProt Q00534)
T1 construct: purchased Reaction Biology Europe GmbH (formerly ProQinase)
Method: (§1) The Kinome Screening was performed by Reaction Biology Europe GmbH (http://reactionbiology.com; Freiburg i. Br., Germany).

[2] = target: T2, ERBB2 (Homo sapiens, UniProt P04626)
T2 construct: purchased Reaction Biology Europe GmbH (formerly ProQinase)
T2 sequence (P04626 23-1255): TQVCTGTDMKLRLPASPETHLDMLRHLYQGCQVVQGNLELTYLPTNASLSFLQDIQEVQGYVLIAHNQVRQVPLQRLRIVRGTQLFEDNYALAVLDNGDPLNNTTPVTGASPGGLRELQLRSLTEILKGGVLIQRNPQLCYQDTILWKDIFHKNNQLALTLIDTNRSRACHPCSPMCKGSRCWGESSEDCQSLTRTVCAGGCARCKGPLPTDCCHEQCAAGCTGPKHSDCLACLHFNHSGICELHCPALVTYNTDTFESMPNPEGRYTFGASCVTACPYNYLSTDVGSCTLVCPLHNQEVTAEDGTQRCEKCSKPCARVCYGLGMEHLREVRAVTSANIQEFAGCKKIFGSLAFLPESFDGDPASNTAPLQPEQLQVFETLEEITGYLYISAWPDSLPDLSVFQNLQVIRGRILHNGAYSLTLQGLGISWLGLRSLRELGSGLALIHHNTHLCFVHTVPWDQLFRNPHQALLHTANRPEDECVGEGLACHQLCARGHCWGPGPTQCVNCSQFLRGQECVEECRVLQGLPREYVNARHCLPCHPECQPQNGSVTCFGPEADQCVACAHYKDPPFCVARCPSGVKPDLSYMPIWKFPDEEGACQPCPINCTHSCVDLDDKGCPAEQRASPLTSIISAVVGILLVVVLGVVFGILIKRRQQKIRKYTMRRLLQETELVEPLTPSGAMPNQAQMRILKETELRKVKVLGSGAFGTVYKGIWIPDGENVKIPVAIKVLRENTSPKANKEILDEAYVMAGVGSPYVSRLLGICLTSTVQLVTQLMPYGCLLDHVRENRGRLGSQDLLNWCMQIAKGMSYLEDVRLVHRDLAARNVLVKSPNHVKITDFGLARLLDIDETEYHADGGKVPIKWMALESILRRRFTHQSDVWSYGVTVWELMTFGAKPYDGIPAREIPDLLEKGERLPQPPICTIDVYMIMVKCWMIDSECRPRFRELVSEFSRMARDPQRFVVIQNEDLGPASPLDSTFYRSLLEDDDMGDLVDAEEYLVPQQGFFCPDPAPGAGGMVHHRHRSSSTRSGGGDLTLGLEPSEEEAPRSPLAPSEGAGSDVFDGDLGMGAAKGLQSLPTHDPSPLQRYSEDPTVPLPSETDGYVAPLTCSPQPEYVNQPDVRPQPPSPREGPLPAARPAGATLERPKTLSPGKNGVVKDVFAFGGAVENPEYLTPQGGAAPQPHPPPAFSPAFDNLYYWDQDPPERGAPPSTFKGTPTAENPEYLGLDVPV
Method: as §1

[3] = target: T3, ERBB4 (Homo sapiens, UniProt Q15303)
T3 construct: purchased Reaction Biology Europe GmbH (formerly ProQinase)
Method: as §1

[4] = target: T4, GRK4 (Homo sapiens, UniProt P32298)
T4 construct: purchased Reaction Biology Europe GmbH (formerly ProQinase)
T4 sequence (P32298 whole entry): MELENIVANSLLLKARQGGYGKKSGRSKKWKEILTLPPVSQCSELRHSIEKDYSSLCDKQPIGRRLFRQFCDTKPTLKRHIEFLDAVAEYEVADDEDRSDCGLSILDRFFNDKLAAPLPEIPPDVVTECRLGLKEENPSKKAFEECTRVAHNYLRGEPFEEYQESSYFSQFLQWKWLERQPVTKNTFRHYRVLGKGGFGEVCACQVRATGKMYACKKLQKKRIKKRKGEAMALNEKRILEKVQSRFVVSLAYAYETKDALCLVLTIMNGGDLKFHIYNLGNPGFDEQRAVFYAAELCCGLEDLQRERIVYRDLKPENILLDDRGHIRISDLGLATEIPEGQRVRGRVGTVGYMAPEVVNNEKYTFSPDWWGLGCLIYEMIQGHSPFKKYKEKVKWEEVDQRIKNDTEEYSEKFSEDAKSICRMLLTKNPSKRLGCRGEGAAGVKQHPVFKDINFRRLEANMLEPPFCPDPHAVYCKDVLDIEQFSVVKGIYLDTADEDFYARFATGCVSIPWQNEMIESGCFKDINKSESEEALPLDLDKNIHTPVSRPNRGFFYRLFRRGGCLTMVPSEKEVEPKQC
Method: as §1

[5] = target: T5, HCK (Homo sapiens, UniProt P08631)
T5 construct: purchased Reaction Biology Europe GmbH (formerly ProQinase)
T5 sequence (P08631 whole entry): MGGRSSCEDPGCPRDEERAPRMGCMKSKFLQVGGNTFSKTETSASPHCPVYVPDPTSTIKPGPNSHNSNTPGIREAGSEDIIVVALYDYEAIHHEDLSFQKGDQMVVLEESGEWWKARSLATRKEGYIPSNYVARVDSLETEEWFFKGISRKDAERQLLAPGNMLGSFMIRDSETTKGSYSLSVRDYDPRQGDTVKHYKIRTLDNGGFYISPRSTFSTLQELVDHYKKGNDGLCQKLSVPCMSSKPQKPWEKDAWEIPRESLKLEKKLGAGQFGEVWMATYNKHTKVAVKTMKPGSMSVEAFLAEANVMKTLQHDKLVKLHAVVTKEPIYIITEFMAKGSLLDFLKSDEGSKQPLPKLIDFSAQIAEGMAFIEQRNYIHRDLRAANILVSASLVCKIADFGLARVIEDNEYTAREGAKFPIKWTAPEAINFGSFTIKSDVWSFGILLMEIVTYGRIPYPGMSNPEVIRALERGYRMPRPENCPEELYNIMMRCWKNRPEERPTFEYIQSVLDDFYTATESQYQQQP
Method: as §1

[6] = target: T6, IKKα (Homo sapiens, UniProt O15111)
T6 construct: purchased Reaction Biology Europe GmbH (formerly ProQinase)
T6 sequence (O15111 1-745): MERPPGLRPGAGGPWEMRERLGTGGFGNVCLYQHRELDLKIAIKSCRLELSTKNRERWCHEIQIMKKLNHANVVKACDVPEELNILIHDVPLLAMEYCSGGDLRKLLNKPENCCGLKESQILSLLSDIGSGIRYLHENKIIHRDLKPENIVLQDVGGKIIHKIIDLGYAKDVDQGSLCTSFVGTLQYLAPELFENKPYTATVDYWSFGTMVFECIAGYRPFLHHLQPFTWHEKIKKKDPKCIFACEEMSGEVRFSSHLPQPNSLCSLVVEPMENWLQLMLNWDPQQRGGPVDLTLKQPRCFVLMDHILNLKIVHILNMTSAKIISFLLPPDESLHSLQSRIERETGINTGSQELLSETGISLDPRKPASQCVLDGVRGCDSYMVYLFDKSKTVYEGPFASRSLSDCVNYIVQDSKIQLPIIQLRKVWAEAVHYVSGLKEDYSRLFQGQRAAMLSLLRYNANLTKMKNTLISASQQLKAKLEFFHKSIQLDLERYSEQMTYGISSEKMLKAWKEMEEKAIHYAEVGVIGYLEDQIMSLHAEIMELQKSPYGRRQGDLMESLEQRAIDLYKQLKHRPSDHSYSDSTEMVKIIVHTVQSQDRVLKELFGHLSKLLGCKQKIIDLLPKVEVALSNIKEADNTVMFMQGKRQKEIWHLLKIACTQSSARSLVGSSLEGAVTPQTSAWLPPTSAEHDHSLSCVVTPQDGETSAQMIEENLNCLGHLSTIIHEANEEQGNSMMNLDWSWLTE
Method: as §1

[7] = target: T7, MARK2 (Homo sapiens, UniProt Q7KZI7)
T7 construct: purchased Reaction Biology Europe GmbH (formerly ProQinase)
Method: as §1

[8] = target: T8, PKCζ (Homo sapiens, UniProt Q05513)
T8 construct: purchased Reaction Biology Europe GmbH (formerly ProQinase)
T8 sequence (Q05513 1-592): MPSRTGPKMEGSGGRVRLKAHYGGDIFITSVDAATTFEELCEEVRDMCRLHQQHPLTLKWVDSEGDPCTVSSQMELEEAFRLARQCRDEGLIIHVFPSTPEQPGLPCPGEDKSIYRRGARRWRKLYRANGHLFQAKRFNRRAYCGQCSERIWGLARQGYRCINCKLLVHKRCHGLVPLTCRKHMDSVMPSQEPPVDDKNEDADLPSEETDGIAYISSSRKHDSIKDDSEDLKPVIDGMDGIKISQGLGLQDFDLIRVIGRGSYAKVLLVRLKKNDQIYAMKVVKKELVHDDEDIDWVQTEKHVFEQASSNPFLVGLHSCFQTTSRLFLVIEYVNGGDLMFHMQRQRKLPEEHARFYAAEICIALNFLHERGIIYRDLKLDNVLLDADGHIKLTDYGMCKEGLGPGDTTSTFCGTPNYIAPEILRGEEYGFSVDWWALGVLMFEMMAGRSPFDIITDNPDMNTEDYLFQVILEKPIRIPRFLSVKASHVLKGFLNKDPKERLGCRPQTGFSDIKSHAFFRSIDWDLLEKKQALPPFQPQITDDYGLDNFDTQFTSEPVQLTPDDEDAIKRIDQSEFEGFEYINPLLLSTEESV
Method: as §1

[9] = target: T9, PYK2 (Homo sapiens, UniProt Q14289)
T9 construct: purchased Reaction Biology Europe GmbH (formerly ProQinase)
T9 sequence (Q14289 whole entry): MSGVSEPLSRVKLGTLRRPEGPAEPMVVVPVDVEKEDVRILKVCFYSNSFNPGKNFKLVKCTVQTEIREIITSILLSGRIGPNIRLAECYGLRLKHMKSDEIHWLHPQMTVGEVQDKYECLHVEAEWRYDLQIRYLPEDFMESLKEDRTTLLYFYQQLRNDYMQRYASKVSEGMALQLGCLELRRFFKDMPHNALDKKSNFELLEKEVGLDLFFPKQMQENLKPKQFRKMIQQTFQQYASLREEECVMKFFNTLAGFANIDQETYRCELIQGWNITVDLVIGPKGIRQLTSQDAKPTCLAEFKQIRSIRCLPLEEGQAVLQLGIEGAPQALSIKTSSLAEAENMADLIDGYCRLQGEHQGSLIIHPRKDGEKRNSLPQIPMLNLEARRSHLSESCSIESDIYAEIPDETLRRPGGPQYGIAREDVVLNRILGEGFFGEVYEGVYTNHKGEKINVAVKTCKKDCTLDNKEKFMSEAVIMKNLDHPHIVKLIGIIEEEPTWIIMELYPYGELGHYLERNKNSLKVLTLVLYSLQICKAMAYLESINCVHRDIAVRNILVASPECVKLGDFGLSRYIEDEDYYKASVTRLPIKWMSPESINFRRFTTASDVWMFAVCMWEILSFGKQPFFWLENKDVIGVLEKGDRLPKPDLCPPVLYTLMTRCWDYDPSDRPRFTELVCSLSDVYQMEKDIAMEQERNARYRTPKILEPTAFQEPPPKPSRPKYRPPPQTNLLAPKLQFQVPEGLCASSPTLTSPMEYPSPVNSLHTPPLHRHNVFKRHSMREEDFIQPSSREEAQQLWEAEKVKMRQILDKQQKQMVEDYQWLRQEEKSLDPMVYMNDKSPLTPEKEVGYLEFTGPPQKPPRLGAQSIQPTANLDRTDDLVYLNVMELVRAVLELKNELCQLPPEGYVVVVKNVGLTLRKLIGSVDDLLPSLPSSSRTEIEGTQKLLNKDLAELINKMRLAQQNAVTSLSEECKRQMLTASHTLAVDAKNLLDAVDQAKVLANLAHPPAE
Method: as §1

[10] = target: T10, SIK2 (Homo sapiens, UniProt Q9H0K1)
T10 construct: purchased Reaction Biology Europe GmbH (formerly ProQinase)
Method: as §1

[11] = target: T11, TXK (Homo sapiens, UniProt P42681)
T11 construct: purchased Reaction Biology Europe GmbH (formerly ProQinase)
T11 sequence (P42681 1-527): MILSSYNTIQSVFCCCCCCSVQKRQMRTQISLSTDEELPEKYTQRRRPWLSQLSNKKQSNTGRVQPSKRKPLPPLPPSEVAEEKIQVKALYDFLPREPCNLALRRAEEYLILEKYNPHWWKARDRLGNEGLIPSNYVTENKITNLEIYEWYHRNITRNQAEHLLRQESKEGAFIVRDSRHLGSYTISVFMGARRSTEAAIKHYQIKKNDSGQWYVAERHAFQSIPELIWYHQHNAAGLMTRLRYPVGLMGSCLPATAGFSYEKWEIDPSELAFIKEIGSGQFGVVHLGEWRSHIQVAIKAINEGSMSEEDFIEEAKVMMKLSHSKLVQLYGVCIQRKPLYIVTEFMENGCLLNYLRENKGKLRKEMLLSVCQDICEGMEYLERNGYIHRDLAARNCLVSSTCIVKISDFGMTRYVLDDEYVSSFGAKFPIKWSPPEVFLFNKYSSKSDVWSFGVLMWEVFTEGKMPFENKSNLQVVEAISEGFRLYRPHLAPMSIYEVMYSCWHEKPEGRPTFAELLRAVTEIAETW
Method: as §1

[12] = target: T12, ZAK (Homo sapiens, UniProt Q9NYL2)
T12 construct: purchased Reaction Biology Europe GmbH (formerly ProQinase)
T12 sequence (Q9NYL2 whole entry): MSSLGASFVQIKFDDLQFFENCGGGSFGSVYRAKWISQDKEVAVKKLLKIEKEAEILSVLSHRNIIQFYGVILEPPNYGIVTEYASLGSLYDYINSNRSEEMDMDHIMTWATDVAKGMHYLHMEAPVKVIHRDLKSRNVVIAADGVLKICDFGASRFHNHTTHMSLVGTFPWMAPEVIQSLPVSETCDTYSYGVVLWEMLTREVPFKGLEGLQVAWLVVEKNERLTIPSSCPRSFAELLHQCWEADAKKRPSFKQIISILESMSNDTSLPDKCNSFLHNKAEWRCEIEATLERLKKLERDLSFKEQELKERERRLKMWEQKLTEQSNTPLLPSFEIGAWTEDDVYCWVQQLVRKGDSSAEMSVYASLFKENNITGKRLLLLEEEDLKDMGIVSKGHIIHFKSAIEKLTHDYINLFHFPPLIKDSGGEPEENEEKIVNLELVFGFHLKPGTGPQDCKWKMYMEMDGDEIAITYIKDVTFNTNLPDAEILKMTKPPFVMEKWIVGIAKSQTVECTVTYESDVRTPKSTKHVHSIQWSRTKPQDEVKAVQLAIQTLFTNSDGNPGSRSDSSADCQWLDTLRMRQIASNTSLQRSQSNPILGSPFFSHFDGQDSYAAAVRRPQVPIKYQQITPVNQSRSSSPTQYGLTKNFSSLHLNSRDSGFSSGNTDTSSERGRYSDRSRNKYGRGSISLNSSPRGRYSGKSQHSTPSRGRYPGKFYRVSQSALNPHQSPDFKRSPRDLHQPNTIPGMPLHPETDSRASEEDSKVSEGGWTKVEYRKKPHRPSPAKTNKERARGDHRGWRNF
Method: as §1

T1 sequence (Q00534 whole entry): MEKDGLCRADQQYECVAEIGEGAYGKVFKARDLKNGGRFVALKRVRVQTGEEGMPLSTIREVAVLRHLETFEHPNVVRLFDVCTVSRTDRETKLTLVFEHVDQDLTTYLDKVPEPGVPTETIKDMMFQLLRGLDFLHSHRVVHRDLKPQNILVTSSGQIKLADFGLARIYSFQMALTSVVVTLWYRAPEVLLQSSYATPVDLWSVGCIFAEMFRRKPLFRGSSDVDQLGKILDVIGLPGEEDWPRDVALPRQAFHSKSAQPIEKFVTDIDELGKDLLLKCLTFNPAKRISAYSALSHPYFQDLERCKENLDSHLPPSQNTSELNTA
T1 sequence (P30279 whole entry partner): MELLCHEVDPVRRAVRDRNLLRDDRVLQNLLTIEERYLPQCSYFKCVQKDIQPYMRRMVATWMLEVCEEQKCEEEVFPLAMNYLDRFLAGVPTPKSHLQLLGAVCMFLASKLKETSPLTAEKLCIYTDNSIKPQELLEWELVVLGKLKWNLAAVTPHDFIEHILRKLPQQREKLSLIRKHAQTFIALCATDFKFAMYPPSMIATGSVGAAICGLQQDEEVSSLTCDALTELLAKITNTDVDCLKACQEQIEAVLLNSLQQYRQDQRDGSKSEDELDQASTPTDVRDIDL

SMILES | residual kinase activity ([1]; 0.3 µM) | residual kinase activity ([2]; 0.3 µM) | residual kinase activity ([3]; 0.3 µM) | residual kinase activity ([4]; 0.3 µM) | residual kinase activity ([5]; 0.3 µM) | residual kinase activity ([6]; 0.3 µM) | residual kinase activity ([7]; 0.3 µM) | residual kinase activity ([8]; 0.3 µM) | residual kinase activity ([9]; 0.3 µM) | residual kinase activity ([10]; 0.3 µM) | residual kinase activity ([11]; 0.3 µM) | residual kinase activity ([12]; 0.3 µM) | further results
COc1ccnc2[nH]cc(-c3cc(N)nc(N)c3)c12 [meriolin 16] | 76 % of control | 102 % of control | 90 % of control | 90 % of control | 81 % of control | 16 % of control | 88 % of control | 78 % of control | 102 % of control | 102 % of control | 90 % of control | 83 % of control | residual kinase activity ([1]; 0.03 µM): 93 % of control; residual kinase activity ([2]; 0.03 µM): 102 % of control; residual kinase activity ([3]; 0.03 µM): 108 % of control; residual kinase activity ([4]; 0.03 µM): 101 % of control; residual kinase activity ([5]; 0.03 µM): 106 % of control; residual kinase activity ([6]; 0.03 µM): 27 % of control; residual kinase activity ([7]; 0.03 µM): 91 % of control; residual kinase activity ([8]; 0.03 µM): 97 % of control; residual kinase activity ([9]; 0.03 µM): 117 % of control; residual kinase activity ([10]; 0.03 µM): 96 % of control; residual kinase activity ([11]; 0.03 µM): 100 % of control; residual kinase activity ([12]; 0.03 µM): 96 % of control
c1ccc(CNc2cc(-c3c[nH]c4ncccc34)ccn2)cc1 [meriolin 36] | 47 % of control | 90 % of control | 101 % of control | 108 % of control | 75 % of control | 37 % of control | 98 % of control | 85 % of control | 73 % of control | 86 % of control | 84 % of control | 57 % of control | residual kinase activity ([1]; 3 µM): 10 % of control; residual kinase activity ([2]; 3 µM): 44 % of control; residual kinase activity ([3]; 3 µM): 56 % of control; residual kinase activity ([4]; 3 µM): 95 % of control; residual kinase activity ([5]; 3 µM): 25 % of control; residual kinase activity ([6]; 3 µM): 13 % of control; residual kinase activity ([7]; 3 µM): 63 % of control; residual kinase activity ([8]; 3 µM): 29 % of control; residual kinase activity ([9]; 3 µM): 24 % of control; residual kinase activity ([10]; 3 µM): 27 % of control; residual kinase activity ([11]; 3 µM): 35 % of control; residual kinase activity ([12]; 3 µM): 14 % of control
